{"source": "patent US8383406B2", "about": "“Method for stimulating the proliferation of differentiated cells belonging to the chondrogenic lineage” (Maco Parma, priority 2007, dated 2013)", "key": {"hybridoma cells": {"tested_on": "hybridoma cells", "conditions": "added to the culture medium; WO 01/46220; cited from earlier work"}, "[1]": {"tested_on": "human osteoarthritic chondrocytes", "experiment": "Calcein-AM test, viability and cytotoxicity of the cells", "format": "cell-based", "conditions": "20 mM glycylglycine; cultured for 7 days; FIG. 3 curve C vs B", "method": "(§1) The analyses were carried out using an FACScan cytometer equipped with ProCellQuest software, under the following experimental conditions: cells in suspension in a PBS isotonic buffer at pH 7.4, having an osmolality of 320-330 mOsmol/kg, with the number of cells analysed being 10,000.\nThe viability of the chondrocytes and the toxicity of the peptide were studied using the method developed by Bratosin et al (2005) and based on measuring the cellular esterase activity by means of calcein-AM.\nPrinciple—Calcein-AM is a non-fluorescent acetic ester of fluorescein which passively passes through the membranes of the viable cells and is transformed by the cytosolic esterases into fluorescent calcein, which provides an intense green signal at 530 nm and which is retained only by the cells having an intact plasma membrane. […]\nOperating procedure—The chondrocytes (4×10^5) in suspension in 200 μl of PBS buffer at pH 7.4 are incubated (45 min at 37° C.) in darkness, in the presence of 5 μM calcein-AM. Next, 0.5 ml of PBS buffer at pH 7.4 is added to the suspension, which is immediately analysed by flow cytometry in the FL1 logarithmic mode (number of cells counted: 10,000).\nThe intensity of the fluorescence on a logarithmic scale is plotted on the x-axis and the relative number of cells is plotted on the y-axis."}, "[2]": {"tested_on": "human osteoarthritic chondrocytes", "experiment": "Cell proliferation test, PKH-26 flow cytometry", "format": "cell-based", "conditions": "20 mM glycylglycine; cultured for 3 days; FIG. 2 curve C vs B", "method": "as §1\nPrinciple—Prior to being cultured, the chondrocytes were irreversibly labelled with a vital fluorescent membrane intercalator derived from arcidine orange, the PKH-26, with a view to following cell proliferation via flow cytometry, which entails a decrease in the overall fluorescence of the cells.\nOperating procedure—10^6 chondrocytes in suspension in 1 ml of the “diluent C” of the labelling kit are added to 1 ml of a […] solution of PKH-26 in the same diluent. After 4 min of incubation at ambient temperature, the reaction is stopped by the addition of 2 ml of foetal calf serum and then, after incubating for one minute, 4 ml of complete DMEM medium are added. After centrifuging (5 min, 2000 g at 25° C.), the resulting sediment is washed 3 times with 10 ml of complete DMEM medium. The cells are then cultured for 3 days under the conditions described in example 1.2, detached from the support thereof according to the above-described method, placed back in suspension in a PBS buffer at pH 7.4 and analyzed by flow cytometry in the logarithmic mode FL2."}, "chondrocytes": {"tested_on": "chondrocytes", "experiment": "Proliferation rate of the cells, glycylglycine concentration kinetics", "format": "cell-based, human", "conditions": "for Number of cells obtained / Proliferation rate after 3 days: 76,000 cells cultured for three days; for Proliferation rate/culture medium without Gly-Gly: three days", "method": "The chondrocytes were cultured on uncoated culture plates with polystyrene wells, at 37° C. for 1 to 7 days in a CO2 atmosphere (5%), in the absence or presence of 20 mM of glycylglycine, in a DMEM medium containing 10% foetal calf serum supplemented with a mixture of antibiotics and antimyotics (10 U/ml penicillin, 10 mg/ml streptomycin, 0.025 mg/ml amphotericin B) and 2 mM L-glutamine. With a view to subsequent cytometric analyses, the chondrocytes were detached by incubating for 3 minutes in a pH 7.4 PBS buffer solution of trypsin (0.25 g/100 ml) and EDTA (0.2 g/100 ml) kept at 37° C. After 3 washings with PBS buffer at pH 7.4, and after counting the cells using a Malassez chamber, the chondrocytes were subjected to various flow cytometry analyses described hereinbelow. The table below compiles the proliferation rates of cells cultured in the absence or presence of various concentrations of glycylglycine. In order to carry out this test, 76,000 cells were cultured for three days under the culture conditions presented below."}, "[3]": {"tested_on": "human osteoarthritic chondrocytes", "experiment": "Culturing of chondrocytes with or without glycylglycine, cell counting", "format": "cell-based", "method": "The articular cartilage was sampled under sterile conditions from an osteoarthritic patient. The chondrocytes were isolated according to the methods of Green (1971) and Kuettner et al (1982), by enzymatic dissociation of the cartilage in Dulbecco's DMEM medium supplemented with a mixture of antibiotics and antimycotics (10 U/ml penicillin, 10 mg/ml streptomycin, 0.025 mg/ml amphotericin B), 2 mM L-glutamine and 10% foetal calf serum. The cartilage was cut up into small fragments and incubated (37° C.; 20 min) in the aforegoing DMEM medium containing 1 mg/ml of sheep testicular hyaluronidase. The fragments were next washed in PBS buffer (Phosphate Saline Buffer) with a pH of 7.4, and then incubated (60 min, at 37° C.) in the same buffer containing 0.25 g/100 mL trypsin. The fragments of cartilage previously washed with the PBS buffer with a pH of 7.4 were finally dissociated via incubation (15 hrs at 37° C.) in the DMEM medium containing 0.2% collagenase of Clostridium histolyticum and 10% foetal calf serum. The cells were collected by centrifugation (15 min, 3000 g), washed 2 times with the complete DMEM medium and cultured under the conditions hereinbelow. The chondrocytes were cultured on uncoated culture plates with polystyrene wells, at 37° C. for 1 to 7 days in a CO2 atmosphere (5%), in the absence or presence of 20 mM of glycylglycine, in a DMEM medium containing 10% foetal calf serum supplemented with a mixture of antibiotics and antimyotics (10 U/ml penicillin, 10 mg/ml streptomycin, 0.025 mg/ml amphotericin B) and 2 mM L-glutamine. With a view to subsequent cytometric analyses, the chondrocytes were detached by incubating for 3 minutes in a pH 7.4 PBS buffer solution of trypsin (0.25 g/100 ml) and EDTA (0.2 g/100 ml) kept at 37° C. After 3 washings with PBS buffer at pH 7.4, and after counting the cells using a Malassez chamber, the chondrocytes were subjected to various flow cytometry analyses described hereinbelow. FIGS. 1A and 1B show this large-scale production of the chondrocytes. […]"}}, "note": "Where a SMILES comes first, the peptide text is derived from it."}
{"smiles": "NCC(=O)O", "note": "[glycine monomer, glycine, reference compound]", "values": [{"measurement": "proliferation of hybridoma cells in comparison with non-supplemented culture medium", "setting": "hybridoma cells", "result": "only very slightly increases"}]}
{"smiles": "NCC(=O)NCC(=O)O", "note": "[glycylglycine] (H-Gly-Gly-OH)", "values": [{"measurement": "toxicity to / viability of the chondrocytes (calcein-AM)", "setting": "[1]", "result": "not toxic to the chondrocytes and does not reduce the viability thereof"}, {"measurement": "proliferation of hybridoma cells in comparison with non-supplemented culture medium", "setting": "hybridoma cells", "result": "only very slightly increases"}, {"measurement": "PKH-26 fluorescence / cell divisions compared with DMEM medium without glycylglycine", "setting": "[2]", "result": "the cell divisions were more numerous"}, {"measurement": "Number of cells obtained", "setting": "chondrocytes; 20 mM Gly-Gly", "result": "190,000 cells/ml"}, {"measurement": "Proliferation rate after 3 days", "setting": "chondrocytes; 20 mM Gly-Gly", "result": 150, "unit": "%"}, {"measurement": "Proliferation rate/culture medium without Gly-Gly", "setting": "chondrocytes; 20 mM Gly-Gly", "result": 2.11}, {"measurement": "Number of cells obtained", "setting": "chondrocytes; 50 mM Gly-Gly", "result": "124,000 cells/ml"}, {"measurement": "Proliferation rate after 3 days", "setting": "chondrocytes; 50 mM Gly-Gly", "result": 63, "unit": "%"}, {"measurement": "Proliferation rate/culture medium without Gly-Gly", "setting": "chondrocytes; 50 mM Gly-Gly", "result": 1.38}, {"measurement": "Number of cells obtained", "setting": "chondrocytes; 100 mM Gly-Gly", "result": "145,000 cells/ml"}, {"measurement": "Proliferation rate after 3 days", "setting": "chondrocytes; 100 mM Gly-Gly", "result": 91, "unit": "%"}, {"measurement": "Proliferation rate/culture medium without Gly-Gly", "setting": "chondrocytes; 100 mM Gly-Gly", "result": 1.61}, {"measurement": "Number of cells obtained", "setting": "chondrocytes; 200 mM Gly-Gly", "result": "130,000 cells/ml"}, {"measurement": "Proliferation rate after 3 days", "setting": "chondrocytes; 200 mM Gly-Gly", "result": 71, "unit": "%"}, {"measurement": "Proliferation rate/culture medium without Gly-Gly", "setting": "chondrocytes; 200 mM Gly-Gly", "result": 1.44}, {"measurement": "Number of cells obtained", "setting": "chondrocytes; 500 mM Gly-Gly", "result": "112,000 cells/ml"}, {"measurement": "Proliferation rate after 3 days", "setting": "chondrocytes; 500 mM Gly-Gly", "result": 47, "unit": "%"}, {"measurement": "Proliferation rate/culture medium without Gly-Gly", "setting": "chondrocytes; 500 mM Gly-Gly", "result": 1.24}, {"measurement": "proliferation rate in comparison with identical culture medium not supplemented with glycylglycine", "setting": "[3]; 20 mM glycylglycine, DMEM medium, 7 days (FIGS. 1A and 1B), cell counting", "result": "multiplied by three"}, {"measurement": "proliferation rate in comparison with non-supplemented culture medium (summary statement)", "setting": "[3]; glycylglycine added to the chondrocyte culture medium", "result": "multiplied by three, and even by seven"}, {"measurement": "dedifferentiation of the chondrocytes into fibroblasts", "setting": "[3]; presence of glycylglycine in culture medium", "result": "blocks the dedifferentiation of the chondrocytes into fibroblasts"}]}
